# Assay results published in BigSolDB 2.1.
smiles,measurement,setting,value
c1ccc2ccccc2c1,solubility (mole fraction),"in acetone, 297.17 K",0.211
same,solubility (mole fraction),"in acetone, 298.11 K",0.218
same,solubility (mole fraction),"in acetone, 300.23 K",0.233
same,solubility (mole fraction),"in acetone, 301.55 K",0.246
same,solubility (mole fraction),"in acetone, 303.47 K",0.259
same,solubility (mole fraction),"in acetone, 305.14 K",0.272
same,solubility (mole fraction),"in acetone, 306.63 K",0.285
same,solubility (mole fraction),"in acetone, 307.76 K",0.297
same,solubility (mole fraction),"in acetone, 309.37 K",0.31
same,solubility (mole fraction),"in acetone, 311.03 K",0.323
same,solubility (mole fraction),"in acetone, 312.03 K",0.335
same,solubility (mole fraction),"in acetone, 312.97 K",0.347
same,solubility (mole fraction),"in acetone, 314.37 K",0.361
same,solubility (mole fraction),"in acetone, 315.74 K",0.376
same,solubility (mole fraction),"in acetone, 317.26 K",0.394
same,solubility (mole fraction),"in acetone, 319.06 K",0.415
same,solubility (mole fraction),"in acetone, 320.87 K",0.44
same,solubility (mole fraction),"in acetone, 322.7 K",0.459
same,solubility (mole fraction),"in ethanol, 304.26 K",0.0464
same,solubility (mole fraction),"in ethanol, 307.44 K",0.0531
same,solubility (mole fraction),"in ethanol, 309.53 K",0.0566
same,solubility (mole fraction),"in ethanol, 311.93 K",0.0614
same,solubility (mole fraction),"in ethanol, 314.52 K",0.0658
same,solubility (mole fraction),"in ethanol, 315.93 K",0.0703
same,solubility (mole fraction),"in ethanol, 318.07 K",0.076
same,solubility (mole fraction),"in ethanol, 319.8 K",0.0816
same,solubility (mole fraction),"in ethanol, 321.46 K",0.0876
same,solubility (mole fraction),"in ethanol, 323.45 K",0.103
same,solubility (mole fraction),"in ethanol, 325.68 K",0.116
same,solubility (mole fraction),"in ethanol, 327.32 K",0.129
same,solubility (mole fraction),"in ethanol, 329.34 K",0.14
same,solubility (mole fraction),"in ethanol, 330.43 K",0.154
same,solubility (mole fraction),"in ethanol, 332 K",0.174
same,solubility (mole fraction),"in ethanol, 333.9 K",0.204
same,solubility (mole fraction),"in ethanol, 335.9 K",0.238
same,solubility (mole fraction),"in ethanol, 337.76 K",0.293
same,solubility (mole fraction),"in ethanol, 339.76 K",0.382
same,solubility (mole fraction),"in n-butanol, 313.77 K",0.113
same,solubility (mole fraction),"in n-butanol, 315.17 K",0.119
same,solubility (mole fraction),"in n-butanol, 317.98 K",0.139
same,solubility (mole fraction),"in n-butanol, 320.74 K",0.159
same,solubility (mole fraction),"in n-butanol, 323.67 K",0.183
same,solubility (mole fraction),"in n-butanol, 325.6 K",0.205
same,solubility (mole fraction),"in n-butanol, 327.76 K",0.228
same,solubility (mole fraction),"in n-butanol, 329.03 K",0.252
same,solubility (mole fraction),"in n-butanol, 331.8 K",0.294
same,solubility (mole fraction),"in n-butanol, 333.65 K",0.333
same,solubility (mole fraction),"in n-butanol, 335.1 K",0.375
same,solubility (mole fraction),"in n-butanol, 337 K",0.436
same,solubility (mole fraction),"in n-butanol, 338.15 K",0.477
same,solubility (mole fraction),"in n-butanol, 339.63 K",0.526
same,solubility (mole fraction),"in n-butanol, 340.65 K",0.567
same,solubility (mole fraction),"in n-butanol, 342.04 K",0.62
same,solubility (mole fraction),"in n-butanol, 342.8 K",0.66
same,solubility (mole fraction),"in n-heptane, 290.25 K",0.0595
same,solubility (mole fraction),"in n-heptane, 294.3 K",0.0705
same,solubility (mole fraction),"in n-heptane, 297.85 K",0.0798
same,solubility (mole fraction),"in n-heptane, 301.37 K",0.0889
same,solubility (mole fraction),"in n-heptane, 303.04 K",0.0978
same,solubility (mole fraction),"in n-heptane, 305.3 K",0.107
same,solubility (mole fraction),"in n-heptane, 307.53 K",0.115
same,solubility (mole fraction),"in n-heptane, 309.63 K",0.123
same,solubility (mole fraction),"in n-heptane, 311.2 K",0.133
same,solubility (mole fraction),"in n-heptane, 312.6 K",0.141
same,solubility (mole fraction),"in n-heptane, 314.13 K",0.15
same,solubility (mole fraction),"in n-heptane, 315.15 K",0.158
same,solubility (mole fraction),"in n-heptane, 316.63 K",0.168
same,solubility (mole fraction),"in n-heptane, 317.65 K",0.177
same,solubility (mole fraction),"in n-heptane, 321.33 K",0.209
same,solubility (mole fraction),"in n-heptane, 324.25 K",0.23
same,solubility (mole fraction),"in n-heptane, 326.98 K",0.265
same,solubility (mole fraction),"in n-heptane, 329.45 K",0.304
same,solubility (mole fraction),"in n-heptane, 330.26 K",0.329
same,solubility (mole fraction),"in n-heptane, 331.5 K",0.35
same,solubility (mole fraction),"in n-heptane, 333.75 K",0.389
same,solubility (mole fraction),"in toluene, 291.35 K",0.239
same,solubility (mole fraction),"in toluene, 301.45 K",0.31
same,solubility (mole fraction),"in toluene, 304.54 K",0.34
same,solubility (mole fraction),"in toluene, 308.53 K",0.374
same,solubility (mole fraction),"in toluene, 311.93 K",0.406
same,solubility (mole fraction),"in toluene, 315.25 K",0.439
same,solubility (mole fraction),"in toluene, 318.55 K",0.472
same,solubility (mole fraction),"in toluene, 322.23 K",0.503
same,solubility (mole fraction),"in toluene, 324.37 K",0.537
same,solubility (mole fraction),"in toluene, 327.55 K",0.589
same,solubility (mole fraction),"in toluene, 331.35 K",0.637
same,solubility (mole fraction),"in toluene, 334.65 K",0.677
